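Step 1: Grow cells in 96-well plates. Step 2: Expose to compound for 48 hours at 5 concentrations. Step 3: Interpolate endpoints linearly; if unreached, use highest concentration. GI50 marks 50% less growth.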 The source made the active and inactive calls. No stated cut-off is given here; in the data, active = GI50 up to about 1.1 µM and inactive = higher.
How the values were obtained:
Assay in all cases: NCI-60 cell line screen, 48 h
SN12C = test system: SN12C
DLD-1 = test system: DLD-1
MCF7 = test system: MCF7
HOP-62 = test system: HOP-62
U-251 = test system: U-251
UACC-62 = test system: UACC-62
SNB-78 = test system: SNB-78
COLO 205 = test system: COLO 205
UO-31 = test system: UO-31
NCI/ADR-RES = test system: NCI/ADR-RES
SF-539 = test system: SF-539
OVCAR-5 = test system: OVCAR-5
HOP-18 = test system: HOP-18
SK-MEL-5 = test system: SK-MEL-5
TK-10 = test system: TK-10
M14 = test system: M14
LXFL 529 = test system: LXFL 529
SR = test system: SR
ACHN = test system: ACHN
MDA-MB-231 = test system: MDA-MB-231

SMILES | GI50 (SN12C) | GI50 (DLD-1) | GI50 (MCF7) | GI50 (HOP-62) | GI50 (U-251) | GI50 (UACC-62) | GI50 (SNB-78) | GI50 (COLO 205) | GI50 (UO-31) | GI50 (NCI/ADR-RES) | GI50 (SF-539) | GI50 (OVCAR-5) | GI50 (HOP-18) | GI50 (SK-MEL-5) | GI50 (TK-10) | GI50 (M14) | GI50 (LXFL 529) | GI50 (SR) | GI50 (ACHN) | GI50 (MDA-MB-231)
CCCCC#CS(=O)(=O)C(F)(F)F | > 100 µM (inactive) | > 100 µM (inactive) | 52.6 µM (inactive) | > 61.5 µM (inactive) | 76.6 µM (inactive) | 48.2 µM (inactive) | > 100 µM (inactive) | > 75.7 µM (inactive) | 68.9 µM (inactive) | 47.3 µM (inactive) | > 100 µM (inactive) | > 100 µM (inactive) | > 100 µM (inactive) | 52.7 µM (inactive) |  |  |  |  |  | 
N#CC(Nc1cccc(C(F)(F)F)c1)c1ccccc1C(F)(F)F (configuration not stated) | 7.4 µM (inactive) | 15.9 µM (inactive) |  | 3.52 µM (inactive) | 16.9 µM (inactive) | 16.2 µM (inactive) | 20.1 µM (inactive) | 3.26 µM (inactive) | 17.9 µM (inactive) |  | 18.4 µM (inactive) | 14.8 µM (inactive) | 13.5 µM (inactive) | 18 µM (inactive) | 14.7 µM (inactive) | 7.29 µM (inactive) | 6.17 µM (inactive) | 4.82 µM (inactive) | 14.5 µM (inactive) | 
COc1ccc(C2C3CCCC(C3=O)C(c3ccc(OC)cc3)N2N=O)cc1 (configuration not stated) | 18.5 µM (inactive) | 33.9 µM (inactive) | 18.8 µM (inactive) | 38.5 µM (inactive) | 40.6 µM (inactive) | 28.6 µM (inactive) | > 66.4 µM (inactive) | 20.1 µM (inactive) | 56.1 µM (inactive) | 32.4 µM (inactive) | > 10 µM (inactive) | > 55.6 µM (inactive) | 8.91 µM (inactive) | 17.7 µM (inactive) |  |  |  |  |  | 
CN(Cc1cnc2nc(N)nc(N)c2n1)c1ccc(C(=O)NC(CCC(=O)O)C(=O)O)cc1 (configuration not stated) | < 0.011 µM (active) |  |  |  | 0.0916 µM (active) | < 0.0136 µM (active) |  | 0.705 µM (active) | 0.232 µM (active) | 0.0249 µM (active) | < 0.014 µM (active) | > 100 µM (inactive) |  | 0.0661 µM (active) | 0.869 µM (active) | 0.117 µM (active) |  | < 0.01 µM (active) | 0.0204 µM (active) | > 100 µM (inactive)
O=S(O)c1cc(Cl)c(O)c(Cl)c1 | > 100 µM (inactive) | > 100 µM (inactive) |  | > 100 µM (inactive) | > 100 µM (inactive) | > 100 µM (inactive) | > 100 µM (inactive) |  | > 100 µM (inactive) |  | > 100 µM (inactive) | > 100 µM (inactive) |  |  | > 100 µM (inactive) | > 100 µM (inactive) | > 100 µM (inactive) | > 100 µM (inactive) | > 100 µM (inactive) | 
COC(=O)c1nc(-c2ccc3c(n2)C(=O)C(=N)C(OC)=C3O)c(N)c(-c2ccc(OC)c(OC)c2O)c1C | 1.16 µM (inactive) | 1.17 µM (inactive) | 0.153 µM (active) | 0.194 µM (active) | 0.377 µM (active) | 0.29 µM (active) | 2.35 µM (inactive) | 1.84 µM (inactive) | 0.729 µM (active) | 1.3 µM (inactive) | 0.363 µM (active) | 2.14 µM (inactive) | 2.03 µM (inactive) | 0.413 µM (active) |  |  |  |  |  | 
COC(=O)C1=C(C)N2CCCOC2(C)C(C(=O)OC)C1c1cccc(Cl)c1 (configuration not stated) |  |  |  | 20.7 µM (inactive) |  | 15.2 µM (inactive) |  | 17.3 µM (inactive) | 22.3 µM (inactive) |  | 27.8 µM (inactive) |  |  | > 100 µM (inactive) | 53 µM (inactive) | 20 µM (inactive) | 20 µM (inactive) | > 10 µM (inactive) | 28.2 µM (inactive) | 
CCCSCC(P(=O)(O)O)P(=O)(O)O.NC1CCCCC1 | > 100 µM (inactive) | > 100 µM (inactive) | > 100 µM (inactive) | > 100 µM (inactive) | > 100 µM (inactive) | > 100 µM (inactive) | > 100 µM (inactive) | > 100 µM (inactive) | > 100 µM (inactive) | > 100 µM (inactive) | > 100 µM (inactive) | > 100 µM (inactive) | > 100 µM (inactive) | > 100 µM (inactive) |  |  |  |  |  | 
